{
  "source": "patent US7776572B2",
  "about": "“Method for reducing loss of enzyme activity during storage” (Corning Incorporated, priority 1996, dated 2010)",
  "key": {"[1]": {"test_system": "IgG (Horse Standard, Pierce)", "test": "Coating durability using protein solution washes on four polymers, colloidal Au", "settings": "after six IgG solution exposures", "method": "The procedures used were as follows. Injection molded assay plates (96-well format) were made from polystyrene, (STYRON Dow 685D), polypropylene (Exxon 9374), polymethyl methacrylate (ATO HAAS), and KYNAR FLEX 2800 PVDF copolymer (ATO HAAS). Each well was aliquoted 0.10 ml of IgG (Horse Standard, Pierce) at 10 μg/ml in 0.01 M PBS buffer (pH=7.4) and placed on a rocker table for 30 minutes at 23° C. The protein solution was then emptied from the wells and a fresh protein solution was aliquoted to each well and the entire procedure repeated a total of six times. The plates were then rinsed three times with dI H2O (0.3 ml/well). Colloidal Au stain was added to each well (0.3 ml/well) and the plates were placed on a rocker table overnight. Plates were then rinsed 3 times with dI H2O, allowed to dry, and absorbance at 550 nm was measured using the Cambridge Technologies Plate Reader."}, "BSA protein": {"test_system": "BSA protein", "test": "Coating stability in the presence of excess protein, colloidal gold", "method": "The following procedures were employed in this example. 24-well polystyrene plates were coated as described in Materials and Methods using 25 μl aliquots of 0.10% (w/v) sorbitol mono-oleate in isopropanol. Coverage of the sorbitol mono-oleate was calculated at 10 μg/cm^2. Each well of the plates was exposed to 1.0 ml of BSA protein (Pierce) at 2 mg/ml in PBS buffer (pH=7.4). The plates were incubated on a rocker table for 30 minutes at room temperature, the wells were emptied, and the protein exposure was repeated a total of six times. The plates were then rinsed 3 times with dI H2O and stained with the colloidal gold stain overnight. Plates were then rinsed with dI H2O, dried, and the absorbance of each well was measured at 550 nm on the Cambridge Technologies plate reader."}, "IgG": {"test_system": "IgG", "test": "Protein binding to coated 0.45 micron PVDF membranes, Au stain", "settings": "coated two times by immersion, 0.1% in isopropanol; IgG 10 μg/ml", "method": "The experiments were performed using 0.45 micron PVDF membranes. The membranes were coated two times by immersion using 0.1% (weight/volume) of the following non-ionic surfactants in isopropanol: sorbitol mono-oleate, Pluronic® L-121, Pluronic® L-122, and Pluronic® L-123. The membrane was dried at room temperature after each of the two immersion coatings. The coated membranes were incubated with IgG 10 μg/ml in 0.1M PBS (pH 7.4) for 30 minutes at room temperature on an orbital shaker. The membranes were then rinsed three times with water in a clean plate, each rinse being performed for 5 minutes on the shaker. Thereafter, the membranes were stained with Au overnight, again on the shaker. An uncoated PVDF membrane was used as a control."}, "IgG protein": {"test_system": "IgG protein", "test": "In-mold coating of 24-well polystyrene plates, protein binding by colloidal gold staining", "method": "The in-mold coating aspects of the invention were tested by molding 24-well polystyrene plates. […] The 0.01% concentration was estimated to produce less than one monolayer of surfactant on the finished product, while the 0.1% concentration produced about 7 monolayers. The surfactant was applied to the mold using a Crown sprayer (Crown Industrial Products, Hebron, Ill.; Catalog #8011), which produces a sufficiently fine spray of droplets to uniformly coat the mold. The mold was sprayed before each part was made."}},
  "data": [
    {"sequence": "SORBITOL MONO-OLEATE", "values": [
      {"measurement": "Absorbance (550 nm) Polypropylene", "setting": "[1]", "value": 0.00},
      {"measurement": "Absorbance (550 nm) Polystyrene", "setting": "[1]", "value": 0.00},
      {"measurement": "Absorbance at 550 nm", "setting": "BSA protein; 1 exposure to BSA 2 mg/ml, 30 min total, coated polystyrene", "value": 0.0},
      {"measurement": "Absorbance at 550 nm", "setting": "BSA protein; 2 exposures, 60 min total", "value": 0.0},
      {"measurement": "Absorbance at 550 nm", "setting": "BSA protein; 3 exposures, 90 min total", "value": 0.0},
      {"measurement": "Absorbance at 550 nm", "setting": "BSA protein; 4 exposures, 120 min total", "value": 0.0},
      {"measurement": "Absorbance at 550 nm", "setting": "BSA protein; 5 exposures, 150 min total", "value": 0.0},
      {"measurement": "Absorbance at 550 nm", "setting": "BSA protein; 6 exposures, 180 min total", "value": 0.0},
      {"measurement": "protein binding to coated PVDF membrane", "setting": "IgG", "value": "substantially identical to that of the uncoated PVDF"},
      {"measurement": "protein binding of in-mold coated part", "setting": "IgG protein; concentrations above 0.1%, ranging up to 2%", "value": "found to work successfully"},
      {"measurement": "protein binding of in-mold coated part", "setting": "IgG protein; mold sprayed with 0.01% (w/v) solution in isopropanol", "value": "pooling and missed areas were seen which bound protein"},
      {"measurement": "protein binding of in-mold coated part", "setting": "IgG protein; mold sprayed with 0.1% (w/v) solution in isopropanol", "value": "essentially no protein binding"}
    ]}
  ]
}
